From patent US10774046B2, “Inhibitors for the treatment of cancer and related methods” (UNIVERSITY OF LOUISVILLE RESEARCH FOUNDATION, INC., priority 2017, dated 2020)

Key:
[1] = biological target: human recombinant PFKFB4 (Homo sapiens, UniProt Q16877); assay: ADP-Glo kinase assay; type: biochemical
Protocol: The fructose-6-phosphate kinase activity of human recombinant PFKFB4 in the presence of DMSO±indicated 5MPN concentrations was assayed as previously described. The activity of 5MPN against 97 kinases was examined using a commercially available active-site dependent competition binding assay core service (KINOMEscanEDGE) that quantifies the capacity of test agents to compete with an immobilized, active-site directed ligand using a DNA-tagged kinase and immobilized ligand and compound. For example, enzyme inhibition was studied using an ADP-Glo assay. The effect of MPN-2 on the activity of recombinant human PFKFB4 enzyme was examined in an ADP-Glo assay (Promega), which measures ADP formed from a kinase reaction. ADP is converted into ATP, which is converted into light by a luciferase. PFKFB4 protein was exposed to MPN-2 at indicated concentrations in the presence of ATP and fructose-6-phosphate and following manufacturer's instructions, ADP-Glo and kinase detections reagents were added. The data are shown as the decrease in luminescence caused by MPN-2 relative to DMSO.
Method: The efficacy of Formula (VIII) in inhibition of the kinase activity of the PFKFB4 enzyme was examined by exposing recombinant human PFKFB4 protein to Formula (VIII) in the ADP-Glo kinase assay (Promega) which measures ADP formed through a kinase reaction. Briefly, recombinant protein, ATP, substrate and Formula (VIII) were incubated together for the kinase reaction followed by the addition of ADP-Glo reagent, used to terminate the kinase reaction. Lastly, a kinase detection reagent was added to convert the newly formed ADP to ATP which was measured by a luciferase reaction. Data are shown in FIG. 10 as the decrease in luminescence caused by Formula (VIII) relative to DMSO.
Method: The efficacy of FB4-32 and FB4-35 in inhibition of the kinase activity of the PFKFB4 enzyme was examined by exposing recombinant human PFKFB4 protein to FB4-32 and FB4-35 in the ADP-Glo kinase assay (Promega) which measures ADP formed through a kinase reaction. Briefly, recombinant protein, ATP, substrate and FB4-32 or FB4-35 were incubated together for the kinase reaction followed by the addition of ADP-Glo reagent to terminate the kinase reaction. Last, a kinase detection reagent was added to convert the newly formed ADP to ATP which was measured by a luciferase reaction. Data are shown as the decrease in luminescence caused by FB4-32 and FB4-35 relative to DMSO.

[2] = pharmacokinetic profile after IV and oral administration; type: in vivo; conditions: mice
Protocol: Method: The pharmacokinetic profile of FB4-32 was determined in mice dosed orally and IV with FB4-32. Nine time points (n=3 per time point) were used to determine indicated PK parameters calculated using WinNonLin v5.0. Plasma samples were extracted using acetonitrile and analyzed by LC/MS-MS using a PhenomexSynergi Polar-RP 4 micron 50×2.0 mm column eluted with a biphasic mobile phase (0.5% formic acid in acetonitrile and water).

[3] = tested on: H460 cells; assay: F2,6BP measurement in cells (coupled enzyme reaction); type: cell-based, human; conditions: H460, effects at 2.5 μM
Protocol: Cells or tissues were prepared as previously described and F2,6BP content measured using a coupled enzyme reaction following a modification of the method of Van Schaftingen et al (VAN SCHAFTINGEN E et al. “A kinetic study of pyrophosphate:fructose-6-phosphate phosphotransferase from potato tubers. Application to a microassay of fructose 2,6-bisphosphate” Eur J Biochem (1982) Vol. 129, No. 1, pp. 191-195) and normalized to total cellular protein measured by the bicinchoninic acid assay (BCA, Thermo Scientific). For example, H460 cells were exposed to the indicated concentrations of MPN-2. In order to measure F2,6BP, cells were harvested, washed with PBS, lysed in NaOH/Tris acetate by heating at 80° C. and lysates neutralized to pH 7.2. F2,6BP content was measured using a coupled enzyme reaction following a modified method of Van Schaftingen et al (VAN SCHAFTINGEN E et al. “A kinetic study of pyrophosphate:fructose-6-phosphate phosphotransferase from potato tubers. Application to a microassay of fructose 2,6-bisphosphate” Eur J Biochem (1982) Vol. 129, No. 1, pp. 191-195). The F2,6BP concentration was normalized to total cellular protein measured by the bicinchoninic acid assay (BCA, Thermo Scientific). All data are expressed as the mean±SD of three experiments. Statistical significance was assessed by the two-sample t test (independent variable).
Method: In order to measure F26BP, H460 cells were exposed to increasing concentrations of the agents and were harvested, washed with PBS, lysed in NaOH/Tris acetate by heating at 80° C. and lysates neutralized to pH 7.2. F26BP content was measured using a coupled enzyme reaction following a modified method of Van Schaftingen et al. (Eur J Biochem. 1982; 129(1):191-195). The F26BP concentration was normalized to total cellular protein measured by the bicinchoninic acid assay (BCA, Thermo Scientific).

[4] = tested on: H460 cells; assay: glycolysis assay (3H2O from 5-[3H]glucose); type: cell-based, human; conditions: H460
Protocol: H460 cells were exposed to the indicated concentrations of MPN-2 and glycolysis production was examined. Cells growing in 6-well plates were incubated in 500 μl of complete medium containing 1 μCi of 5-[^3H]glucose per well for 60 min in 5% CO2 at 37° C. Media was collected, ^3H2O formed via glycolysis from the 5-[^3H]glucose measured and counts normalized as previously described. For example, the medium was then collected and centrifuged to pellet any suspended cells. To separate the ^3H2O formed via glycolysis from the 5-[^3H]glucose added to the medium, an evaporation technique in a sealed system was utilized. Briefly, 150 μl aliquots of medium were added to open tubes that were placed upright inside scintillation vials containing 1 ml of H2O. The scintillation vials were sealed, and the ^3H2O produced by glycolysis through enolase and released to the medium was allowed to equilibrate with the H2O in the outer vial for 48 h at 37° C. The amounts of ^3H2O that had diffused into the surrounding H2O was measured on a Tri-Carb 2910 liquid scintillation analyzer (Perkin Elmer) and compared with ^3H2O and 5-[^3H]glucose standards. Protein concentration was determined using the BCA assay and counts were normalized to protein concentration. All data are expressed as the mean±SD of three experiments. Statistical significance was assessed by the two-sample t test (independent variable).
Method: To examine glycolysis, H460 cells growing in 6-well plates were incubated in 500 μl of complete medium containing 1 μCi of 5-[^3H] glucose per well for 60 min in 5% CO2 at 37° C. The medium was then collected and centrifuged to pellet any suspended cells. To separate the ^3H2O formed via glycolysis from the 5-[^3H]glucose added to the medium, an evaporation technique in a sealed system was utilized. Briefly, 150 μl aliquots of medium were added to open tubes that were placed upright inside scintillation vials containing 1 ml of H2O. The scintillation vials were sealed, and the ^3H2O produced by glycolysis through enolase and released to the medium was allowed to equilibrate with the H2O in the outer vial for 48 h at 37° C. The amounts of ^3H2O that had diffused into the surrounding H2O was measured on a Tri-Carb 2910 liquid scintillation analyzer (Perkin Elmer) and compared with ^3H2O and 5-[^3H]glucose standards. Protein concentration was determined using the BCA assay and counts were normalized to protein concentration (previously described in CHESNEY et al. Oncotarget. 2014; 5(16):6670-6686.)

[5] = tested on: H460 cells; assay: proliferation, viable cell count by trypan blue exclusion; type: cell-based, human; conditions: for proliferation (cell counts relative to DMSO): H460, counts at 72 hours shown
Protocol: Cells were incubated in 20% trypan blue (Sigma) for 5 minutes. Cells excluding trypan blue were counted using a standard hemocytometer (Hausser Scientific) to determine total numbers of viable cells. Data are expressed as mean±SD of three experiments.
H460 non-small cell lung cancer cells were plated in 24 well plates and exposed to increasing concentrations of the indicated inhibitors of Formula IV (FBR1-02 corresponds to
DMSO was used as vehicle. After 24, 48 and 72 hours of exposure, cells were detached and viable cells were counted by Trypan blue exclusion (representative counts at 48 hours shown).
Method: H460 cells were plated in 24 well plates and exposed to increasing concentrations of FB4-31 to FB4-36 and 5MPN. DMSO was used as a vehicle. After 24, 48 and 72 hours of exposure, cells were detached, and viable cells were counted by Trypan blue exclusion (representative counts at 72 hours shown).

Sequence of human recombinant PFKFB4 (Q16877 whole entry): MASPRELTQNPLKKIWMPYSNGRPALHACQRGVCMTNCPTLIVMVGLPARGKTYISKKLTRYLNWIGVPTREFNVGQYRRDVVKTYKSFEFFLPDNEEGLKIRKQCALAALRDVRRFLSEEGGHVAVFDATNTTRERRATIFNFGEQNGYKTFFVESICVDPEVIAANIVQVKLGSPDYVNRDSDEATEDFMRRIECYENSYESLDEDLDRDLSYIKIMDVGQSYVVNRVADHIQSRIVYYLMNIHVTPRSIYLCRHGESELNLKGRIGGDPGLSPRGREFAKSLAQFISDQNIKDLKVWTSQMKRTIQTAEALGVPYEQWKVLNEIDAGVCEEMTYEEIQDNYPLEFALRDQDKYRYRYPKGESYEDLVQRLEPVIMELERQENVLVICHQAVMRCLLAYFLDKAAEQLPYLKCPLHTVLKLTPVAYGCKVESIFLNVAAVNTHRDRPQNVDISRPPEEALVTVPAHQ

SMILES | kinase activity of the PFKFB4 enzyme (luminescence relative to DMSO) [1] | oral bioavailability [2] | F26BP (normalized to cellular protein) [3] | glycolysis (production of 3H2O relative to DMSO) [4] | proliferation (cell counts relative to DMSO) [5] | proliferation ([5]; H460, Formula IV compounds, counts at 48 hours shown)
COc1cccc2c(NCCCCCCNC(=O)C(F)(F)F)ccnc12 [FB4-32, 2,2,2-Trifluoro-N-(6-((8-methoxyquinolin-4-yl)amino)hexyl)acetamide] | inhibited | found to have oral bioavailability | decrease | dose-dependent decrease | decreased the proliferation of H460 cells in vitro with higher potency than 5MPN | –
COc1cccc2c(NCCCCCNC(=O)CBr)ccnc12 [FB4-35, 2-Bromo-N-(5-((8-methoxyquinolin-4-yl)amino)pentyl)acetamide] | inhibited | – | decrease | dose-dependent decrease | decreased the proliferation of H460 cells in vitro with higher potency than 5MPN | –
O=[N+]([O-])OCCCCCNc1ccnc2ccccc12 [FBR1-02] | – | – | – | – | – | decreased proliferation
